Results taken from patent publication US20150284380A1, “NOVEL HETEROCYCLIC COMPOUNDS AS PEST CONTROL AGENTS” (BAYER CROPSCIENCE AG, priority 2012, published 2015).
Read-outs that look alike come from different tables or passages of the source.

Columns and labels:
[1] = logP by HPLC-MS (HCOOH or neutral)
[2] = test system: green peach aphid (Myzus persicae); assay: Myzus persicae spray test; assay type: in vivo; details: foliar, 144 h, read-out: efficacy in % (aphids killed)
Protocol: Myzus persicae—Spray Test
Solvent: 78 parts by weight of acetone • • 1.5 parts by weight of dimethylformamide
Emulsifier: 0.5 parts by weight of alkylaryl polyglycol ether
To produce a suitable active compound formulation, 1 part by weight of active compound is mixed with the stated amounts of solvent and emulsifier, and the concentrate is diluted with emulsifier-containing water to the desired concentration.
Discs of Chinese cabbage leaves (Brassica pekinensis) infested by all stages of the green peach aphid (Myzus persicae) are sprayed with an active compound formulation of the desired concentration.
After 6 days, the efficacy in % is determined. 100% means that all the aphids have been killed; 0% means that none of the aphids have been killed.

[3] = HCOOH (formic acid), logP (HCOOH), HPLC-MS, HCOOH
[4] = application rate 500 g/ha, spray on infested Chinese cabbage leaf discs, after 6 days
[5] = logP (neutral), HPLC-MS, neutral

chromatographic logP [1, 3]	Compound	pest or weed control at 500 g/ha [2, 4]	other results
1.65	c1cnc(-c2cccc(-c3cnn(-c4cnsc4)c3)n2)nc1 [Example 2, 2-{6-[1-(isothiazol-4-yl)-1H-pyrazol-4-yl]pyridin-2-yl}pyrimidine]		chromatographic logP [1, 5]: 1.64
1.23	c1cnc(-c2cccc(-c3cnn(-c4ccnnc4)c3)n2)nc1 [Example 5]	90%	
1.65	c1cnc(-c2cccc(-c3cnn(-c4cnccn4)c3)n2)nc1 [Example 6]	100%	
1.37	Cn1cc(-n2cc(-c3cccc(-c4ncccn4)n3)cn2)cn1 [Example 7]	100%	
1.91	c1cnc(-c2cccc(-c3cnc(-c4cnsc4)s3)n2)nc1 [Example 10]		

Continued, compound first:

Compound	chromatographic logP [1, 3]	pest or weed control at 500 g/ha [2, 4]	other results
c1cnc(-c2cccc(-c3cnc(-c4cncs4)s3)n2)nc1 [Example 1, 5-[6-(Pyrimidin-2-yl)pyridin-2-yl]-2,5′-bi-1,3-thiazole]	1.76	80%	logP (HCOOH) ([1]; HPLC-MS, HCOOH): 1.74
c1cnc(-c2cccc(-c3cnc(-c4ccnnc4)s3)n2)nc1 [Example 3, 4-{5-[6-(Pyrimidin-2-yl)pyridin-2-yl]-1,3-thiazol-2-yl}pyridazine]	1.37	90%	chromatographic logP ([1]; neutral, logP (neutral), HPLC-MS): 1.4
CS(=O)(=O)NC(=O)c1cccc(-c2cnc(-c3ccnnc3)s2)n1 [Example 4]	1.36	100%	
Cn1cc(-c2ncc(-c3cccc(-c4ncccn4)n3)s2)cn1 [Example 8, 2-{6-[2-(1-Methyl-1H-pyrazol-4-yl)-1,3-thiazol-5-yl]pyridin-2-yl}pyrimidine]		100%	chromatographic logP [1, 5]: 1.56
c1cnc(-c2cccc(-c3cnc(-c4cn[nH]c4)s3)n2)nc1 [Example 9, 2-{6-[2-(1H-Pyrazol-4-yl)-1,3-thiazol-5-yl]pyridin-2-yl}pyrimidine]			chromatographic logP [1]: 1.35; pest or weed control at 500 g/ha ([2]; in Brassica rapa): 90%
FC(F)(F)c1cccc(-c2cnc(-c3cnsc3)s2)n1 [Example 11]	3.13	90%	
CS(=O)(=O)NC(=O)c1cccc(-c2cnc(-c3cnsc3)s2)n1 [Example 12]	1.9	90%	
